{
  "source": "patent US10350271B2",
  "about": "“Lipidated peptides for lowering blood glucose” (USTAV ORGANICKE CHEMIE A BIOCHEMIE AKADEMIE VED CR, V.V.I., priority 2014, dated 2019)",
  "type_in_all_cases": "in vivo",
  "key": {"Wistar rats [1]": {"system": "Wistar rats", "experiment": "Food intake in fasted rats after SC injection", "conditions": "overnight fasted rats, compared to controls given vehicle", "description": "(§1) NMRI mice, C57BL/6 mice, and Wistar rats (AnLab, Prague, Czech Republic) were housed in a temperature of 23° C. and a daily cycle of 12 h light and dark (light from 6:00). They were given ad libitum water and a standard chow diet that contained 25, 9 and 66% of calories of protein, fat and carbohydrate respectively. Energy content of the feed was 3.4 kcal/g (St-1, Mlýn Kocanda, Czech Republic). Db/db mice and their controls (C57BL/6 background) were obtained from Taconic (Denmark), housed under the same conditions as described above, and fed by Altromin (Taconic, Denmark). ZDF-Lepr^fa/Crl, diabetic fa/fa male rats were obtained from Charles River (France), housed under same conditions as described above, and fed with a Purina 5008 diet (IPS Product Supplies Limited, UK). All experiments followed the ethical guidelines for animal experiments and the law of the Czech Republic Nr. 246/1992.\nIn experiments with C57BL/6 mice or Wistar rats, food intake was measured with overnight fasted animals in individual cages. Food was withdrawn 17 hours prior to injection of lipidated analog of prolactin releasing peptide (PrRP); free access to water was maintained. The administration of either saline, PrRP, or lipidated analogs was performed by SC injection at doses of 1-10 mg/kg (which corresponded to a volume of 0.2 ml/mouse and 0.1 ml/100 g weight of rat). Fifteen minutes after the lipidated analog of prolactin releasing peptide (PrRP) administration, the mice were given pre-weighed food. The food was then weighed every 30 minutes for 5-10 hours. The administration of each dose was performed at least twice, and each group of mice consisted of at least 6 mice."}, "ZDF diabetic rats": {"system": "ZDF diabetic rats", "experiment": "21 days repeated administration in diabetic ZDF rats (food intake, OGTT, metabolic parameters)", "description": "Rats were subjected to a 21-day food intake experiment. ZDF rats were IP injected with either phosphate-buffered saline pH6 (control) or compound 43 or 52 at a dose of 1 and 5 mg/kg (n=8), twice a day for 21 days. After 21 days of treatment, rats were fasted overnight and OGTT was performed. After initial blood glucose measurement, 2 g/kg glucose solution was administered by oral gavage. Blood glucose was then measured at 15, 30, 60, 90, 120 and 180 min.\nas §1\nThe ZDF rats were treated with vehicle or analogs 43 and 52 (1 and 5 mg/kg IP) dissolved in phosphate buffered saline, pH 6, twice daily for 21 days and sacrificed on day 22. Food intake was measured daily up to day 22. Leptin, insulin, cholesterol and HbA1c levels were measured on day 21. Glucose tolerance test (OGTT) was also performed on day 21.\nRats were subjected to a 21-day food intake experiment. ZDF rats were IP injected with either phosphate-buffered saline pH6 (control) or compound 43 or 52 at a dose of 1 and 5 mg/kg (n=8), twice a day for 21 days. After 21 days of treatment, rats were fasted overnight and OGTT was performed. After initial blood glucose measurement, 2 g/kg glucose solution was administered by oral gavage. Blood glucose was then measured at 15, 30, 60, 90, 120 and 180 min. […] The statistical significance, denoted by the asterisk (*), was *P<0.05."}, "Wistar rats [2]": {"system": "Wistar rats", "experiment": "IPGTT after acute administration in lean rats", "conditions": "fasted male Wistar rats, 5 mg/kg, vs saline", "description": "IPGTT was performed in overnight fasted male Wistar rats.\nIPGTT was performed in overnight fasted male Wistar rats (Antab, Praha, Czech Republic) at age of 14 weeks. […] 15 min later, 2 g/kg glucose solution was administered IP. Blood glucose was then measured at 15, 30, 60, and 120 min from glucose injection.\nFIG. 4 illustrates a plot of glucose levels after acute administration of palm-PrRP31 in rats. IPGTT was performed in overnight fasted male Wistar rats."}, "C57BL/6 mice": {"system": "C57BL/6 mice", "experiment": "IPGTT after acute administration in lean mice", "conditions": "lean C57BL/6 mice, 5 mg/kg SC, vs saline", "description": "IPGTT was performed in overnight fasted male C57BL/6 mice.\nIntraperitoneal glucose tolerance test (IPGTT) was performed in overnight fasted male C57BL/6 mice (AnLab, Praha, Czech Republic) at age of 12 weeks. […] 15 min later, 2 g/kg glucose solution was administered IP. Blood glucose was then measured at 15, 30, 60, 120 min from glucose injection using a glucometer (Glucocard, Arkray, Kyoto, Japan).\nIPGTT was performed in overnight fasted male C57BL/6 mice, Blood glucose levels were measured at the beginning and after subcutaneous (SC—beneath the skin) administration of palm-PrRP31 (5 mg/kg SC) or saline (n=7) at time 30, 60, 90 and 120 min post injection. […] Regarding the error bars in the graphs *P<0.05, **P<0.01. IPGTT glucose levels were lower in mice given analog 43 instead of saline, particularly early in the experiment. Total area under the curve was also clearly lower in analog 43 mice."}, "[3]": {"system": "obese diabetic monosodium-glutamate (MSG) mice", "experiment": "IPGTT after 10 days administration to obese diabetic MSG mice", "conditions": "5 mg/kg SC twice a day for 10 days, vs saline", "description": "Mice were subjected to a 10-day food intake experiment. […] After 10 days of treatment, mice were fasted overnight and IPGTT was performed. After initial blood glucose measurement, 2 g/kg glucose solution was administered intraperitoneally (IP).\nObese mice were created using MSG. L-glutamic acid sodium salt hydrate (Sigma, St. Louis, USA) was subcutaneously (SC) administered to newborn male mice, at a dose of 4 mg/g body weight, daily from postnatal days 2 to 8 to induce obesity. The MSG treated mice used for experiments were 24 weeks old. Age related mice were used as controls. Obese and control mice were placed into separate cages with free access to food and water. The following week, mice were subjected to a 10-day food intake experiment. […] Consumption of the St-1 diet and the body weight of the mice were simultaneously followed. After 10 days of treatment, mice were fasted overnight and IPGTT was performed. After initial blood glucose measurement, 2 g/kg glucose solution was administered IP.\nBlood glucose was then measured at 15, 30, 60, 120 and 180 min post injection as described above."}, "[4]": {"conditions": "ZDF rats, 1 mg/kg IP twice daily"}, "[5]": {"conditions": "ZDF rats, 5 mg/kg IP twice daily"}, "[6]": {"conditions": "ZDF rats, day 21, 1 mg/kg IP twice daily"}, "[7]": {"conditions": "ZDF rats, day 21, 5 mg/kg IP twice daily"}},
  "note": "Marks after values point to notes of the source that are not given here.",
  "data": [
    {"smiles": "CCCCCCCCCCCCCCCC(=O)N[C@@H](CO)C(=O)N[C@@H](CCCNC(=N)N)C(=O)N[C@H](C(=O)N[C@@H](Cc1c[nH]cn1)C(=O)N[C@@H](CCCNC(=N)N)C(=O)N[C@@H](Cc1c[nH]cn1)C(=O)N[C@@H](CO)C(=O)N[C@@H](CCSC)C(=O)N[C@@H](CCC(=O)O)C(=O)N[C@H](C(=O)N[C@@H](CCCNC(=N)N)C(=O)N[C@H](C(=O)N1CCC[C@H]1C(=O)N[C@@H](CC(=O)O)C(=O)N[C@H](C(=O)N[C@@H](CC(N)=O)C(=O)N1CCC[C@H]1C(=O)N[C@@H](C)C(=O)N[C@@H](Cc1c[nH]c2ccccc12)C(=O)N[C@@H](Cc1ccc(O)cc1)C(=O)N[C@@H](C)C(=O)N[C@@H](CO)C(=O)N[C@@H](CCCNC(=N)N)C(=O)NCC(=O)N[C@H](C(=O)N[C@@H](CCCNC(=N)N)C(=O)N1CCC[C@H]1C(=O)N[C@H](C(=O)NCC(=O)N[C@@H](CCCNC(=N)N)C(=O)N[C@@H](Cc1ccccc1)C(N)=O)C(C)C)[C@@H](C)CC)[C@@H](C)CC)[C@@H](C)O)[C@@H](C)CC)[C@@H](C)O", "note": "[Analog 43]", "values": [
      {"measurement": "Food intake in rats", "setting": "Wistar rats [1]", "value": "significantly reduced"},
      {"measurement": "Food intake in free fed ZDF diabetic rats", "setting": "ZDF diabetic rats; 5 mg/kg IP twice daily, vs vehicle", "value": "significantly lowered"},
      {"measurement": "Cumulative food intake Day 1", "setting": "ZDF diabetic rats; [4]", "value": "40.8 ± 2.1", "unit": "g"},
      {"measurement": "Cumulative food intake Day 1-7", "setting": "ZDF diabetic rats; [4]", "value": "299.9 ± 8.9", "unit": "g"},
      {"measurement": "Cumulative food intake Day 1-14", "setting": "ZDF diabetic rats; [4]", "value": "572.5 ± 15.5", "unit": "g"},
      {"measurement": "Cumulative food intake Day 1-21", "setting": "ZDF diabetic rats; [4]", "value": "817.7 ± 22.1", "unit": "g"},
      {"measurement": "Cumulative food intake Day 1", "setting": "ZDF diabetic rats; [5]", "value": 34.2, "unit": "g"},
      {"measurement": "Cumulative food intake Day 1-7", "setting": "ZDF diabetic rats; [5]", "value": "273.3 ± 20.4** g"},
      {"measurement": "Cumulative food intake Day 1-14", "setting": "ZDF diabetic rats; [5]", "value": "528.9 ± 36.0** g"},
      {"measurement": "Cumulative food intake Day 1-21", "setting": "ZDF diabetic rats; [5]", "value": 768.2, "unit": "g"},
      {"measurement": "OGTT blood glucose levels", "setting": "ZDF diabetic rats; ZDF rats, 5 mg/kg twice daily for 21 days", "value": "significant lowering"},
      {"measurement": "Blood cholesterol levels", "setting": "ZDF diabetic rats; ZDF rats, 1 and 5 mg/kg twice daily, vs controls", "value": "significantly lowered"},
      {"measurement": "Cholesterol", "setting": "ZDF diabetic rats; [6]", "value": "3.10 ± 0.12* mmol/l"},
      {"measurement": "Insulin", "setting": "ZDF diabetic rats; [6]", "value": "267.69 ± 40.69", "unit": "pmol/L"},
      {"measurement": "Leptin", "setting": "ZDF diabetic rats; [6]", "value": "13297 ± 921", "unit": "pg/mL"},
      {"measurement": "Cholesterol", "setting": "ZDF diabetic rats; [7]", "value": "2.91 ± 0.12** mmol/l"},
      {"measurement": "Insulin", "setting": "ZDF diabetic rats; [7]", "value": "271.84 ± 34.00", "unit": "pmol/L"},
      {"measurement": "Leptin", "setting": "ZDF diabetic rats; [7]", "value": "16560 ± 4843", "unit": "pg/mL"},
      {"measurement": "Large spike in blood glucose in IPGTT", "setting": "Wistar rats [2]", "value": "did not"},
      {"measurement": "IPGTT glucose levels", "setting": "C57BL/6 mice", "value": "lower"},
      {"measurement": "IPGTT total area under the curve", "setting": "C57BL/6 mice", "value": "clearly lower"},
      {"measurement": "IPGTT area under the curve through 180 min", "setting": "[3]", "value": "substantially lower"},
      {"measurement": "IPGTT blood glucose levels", "setting": "[3]", "value": "lower"}
    ]}
  ]
}
